Results from US7348316B2, “Use of an anti-endotoxin drug in the prevention and treatment of disease” (Eisai R&D Management Co., Ltd., priority 2003, dated 2008).

System: endotoxin
Experiment: administration of E5564 to humans / endotoxin challenge studies
Assay type: in vivo
Text: We have discovered that administration of E5564 to humans in a single bolus or by intermittent infusion is effective at preventing the clinical effects of endotoxemia. […] Thus, we have discovered drug administration regimens involving single bolus or intermittent infusion, to prevent or treat endotoxemia and related conditions and disorders (e.g., sepsis) in humans.

CCCCCC/C=C\CCCCCCCCC[C@@H](O)N[C@H]1[C@H](OCC2O[C@H](OP(=O)(O)O)[C@H](NC(=O)CC(=O)CCCCCCCCCCC)[C@@H](OCCCCCCCCCC)[C@@H]2O)O[C@H](COC)[C@@H](OP(=O)(O)O)[C@@H]1OCC[C@@H](CCCCCCC)OC (stereo partly drawn) [Compound E5564, α-D-Glucopyranose, 3-O-decyl-2-deoxy-6-O-[2-deoxy-3-O-[(3R)-3-methoxydecyl)-6-O-methyl-2-[[(11Z)-1-oxo-11-octadecenyl)amino]-4-O-phosphono-β-D-glucopyranosyl]-2-[(1,3-dioxotetradecyl)amino]-,1-(dihydrogen phosphate)]
activity of the drug after cessation of administration (doses higher than the minimum dose found to be effective in endotoxin challenge studies): prolonged activity | preventing the clinical effects of endotoxemia (humans, single bolus or intermittent infusion): effective | activity of the drug upon cessation of administration (previous studies): decreases rapidly | clearance from circulation upon cessation of administration (previous studies): not cleared from circulation
